“Also recorded” adds a separate entry of the source.
What was measured:
[1] = system: pSARS-2 infected NHBE cells (infection-induced cell surface shedding of profibrotic enzymes); type: cell-based, human
[2] = system: Wuhan pSARS infected NHBE supernatants; type: cell-based, human
[3] = system: SARS-COV-2 pseudovirus (pSARS-2) infected NHBE cells; type: cell-based, human; conditions: inhibitor added during clotting assay (5 U/ml hirudin, 5 μM dabigatran, 5 μM argatroban), turbidity 350 nm / confocal
thrombin = thrombin (Homo sapiens, UniProt P00734); type: biochemical; conditions: thrombin ~0.2 U/ml; stoichiometric concentration of hirudin
[4] = system: replication competent SARS-COV-2 infected NHBE cells; type: cell-based, human; conditions: WA-1, beta and delta strains

Molecule | fibrin clot formation, inhibitor present during the viral infection [1] | fibrin clotting step, inhibitor added post-infection [2] | infection-induced fibrin clot formation [3] | thrombin induced fibrin clotting (thrombin) | fibrin clotting induced by replication competent SARS-CoV-2 infection of NHBE cells [4]
CNC(=O)[C@H](Cc1ccccc1)NC(=O)[C@H](CC(C)C)[C@H](CSc1cccs1)C(=O)NO [BB-94, batimastat] | significantly reduced; also recorded: inhibited; also recorded: reduced fibrin clot formation | did not inhibit |  |  | 
CC1CNc2c(cccc2S(=O)(=O)N[C@@H](CCCNC(=N)N)C(=O)N2CC[C@@H](C)C[C@@H]2C(=O)O)C1 (stereo partly shown) [argatroban] |  |  | inhibited |  | 
CC1(C)SCCN(S(=O)(=O)c2ccc(Oc3ccncc3)cc2)[C@H]1C(=O)NO [prinomastat] | significantly reduced; also recorded: inhibited |  |  |  | 
hirudin |  |  | completely suppressed | inhibition | inhibited

Source: patent US20260007597A1, “COMPOSITIONS AND METHODS FOR TREATMENT OF VIRUS-INDUCED AIRWAY FIBROSIS” (priority 2022, published 2026)
